According to paper PMC3996151, “Safety and pharmacological characterization of the molecular tweezer CLR01 – a broad-spectrum inhibitor of amyloid proteins’ toxicity” (BMC Pharmacology & Toxicology, 2014):

Assays:
[1] = Solubility in aqueous solutions; assay type: physicochemical
[2] = In vitro dephosphorylation by brain homogenate (inorganic phosphate release); assay type: in vitro ADME, mouse; conditions: positive control substrate, 1.5 mg mouse-brain homogenate
Method: Potential dephosphorylation of CLR01 was analyzed by incubating 100 nmol CLR01 with 0.08 units of alkaline phosphatase (ALP; calf intestinal alkaline phosphatase, Promega, Madison, Wisconsin) for 60 min at 60°C. One enzymatic unit is defined as the amount of enzyme required for catalyzing the hydrolysis of 1 μmol of p-nitrophenylphosphate per minute. p-Nitrophenylphosphate disodium salt at 5–50 nmol (Fisher, Waltham, Massachusetts) was used for generation of a standard curve. The amount of inorganic phosphate generated was measured spectrophotometrically using an EnzChek Phosphate Assay kit (Life Technologies, Carlsbad, California) according to the manufacturer’s instructions on a DU-640 spectrophotometer (Beckman Coulter, Brea, California) at λ = 360 nm. Baseline values were subtracted from readings and compared to the standard curve resulting from serial ALP reactions to calculate the amount of inorganic phosphate. Similarly, potential dephosphorylation of CLR01 by brain homogenates was measured. For these experiments, one brain hemisphere was homogenized by sonication in the presence of cOmplete protease-inhibitor cocktail (Roche, Penzberg, Germany). Protein concentration was measured using a BCA Protein Assay Kit (Pierce, Rockford, Illinois). […]

| SMILES | Solubility in aqueous solutions [1] | Dephosphorylation by brain homogenate, % of the activity of 0.8 enzymatic units of ALP [2] |
| --- | --- | --- |
| O=P(O)(O)Oc1c2c(c(O)c3c1C1CC3c3cc4c(cc31)C1CC4c3ccccc31)C1CC2c2cc3c(cc21)C1CC3c2ccccc21 [monophosphate metabolite] | soluble at millimolar concentrations |  |
| O=[N+]([O-])c1ccc(OP(=O)(O)O)cc1 [p-nitrophenylphosphate, reference compound] |  | 99 - 130% |
